Test results published in patent US11718592B2, “Oxadiazole derivative” (Sumitomo Pharma Co., Ltd., priority 2020, dated 2023).
Where two headings read alike, the source gives them in different places. Marks after values point to notes of the source that are not given here.

Experiments:
[1] = test system: ddY male mice; assay: Test with model produced by subcutaneous injection of pentetrazol (minimum convulsion model, scPTZ); format: in vivo; conditions: 25 mg/kg oral administration
Experimental: In order to evaluate an antiepileptic drug, in general, a model produced by subcutaneous injection of pentetrazol (minimum convulsion model, scPTZ) is used, which has high clinical predictability. […] In this test, an animal model which expresses generalized absence seizure or myoclonic seizure was used. Test compounds were orally administered to Sic: ddY male mice (purchased from Japan SLC, Inc., 5 mice in each group, body weight 20-30 g). After an hour, pentetrazol (85 mg/kg) was subcutaneously administered. […] To control mice, 0.5% methylcellulose solution was administered, and the same test was done. The results are represented as the number of mice with no convulsion, per 5 mice. The present test was deemed to succeed when 4 mice among 5 mice in the control group developed convulsions.

[2] = test system: BALB/c-Scn1a<+/−> mice; assay: Anticonvulsant effect in mouse model of Dravet syndrome with febrile seizures; format: in vivo; conditions: oral; for Difference of the threshold temperature of convulsion from that of the control group: at the dose for anticonvulsive effect, hyperthermia 50 minutes after dosing; for Dose for anticonvulsive effect: dose needed to raise the threshold body temperature for inducing febrile seizures significantly compared with the control group
Description: This is a test for evaluating the anticonvulsant effect for febrile seizures of the test compounds in a mouse model of Dravet syndrome. In this test, BALB/c-Scn1a<+/−> mice were used (catalog number: RBRC06422; they are available from RIKEN BioResource Research Center via the National BioResource Project). The present mouse model having a mutation in a responsible gene for Dravet syndrome, Scn1A, presents with symptoms similar to febrile seizures caused by hyperthermia which is a symptom in a patient suffering from Dravet syndrome, and can be used as an animal model of spontaneous Dravet syndrome (for reference: the Japan Epilepsy Research Foundation, Annual Report 2015: 26: 69-76). To male mice model of Dravet syndrome (one group: 5-8 mice, body weight: 20-30 g) were orally administered the test compound. 50 minutes later, the mice were put in a chamber warmed with hot bath to evoke hyperthermia, and observed about the development of febrile seizures. Immediately after febrile seizure was developed, the rectal temperature was measured and used as the threshold body temperature for inducing febrile seizures.

[3] = test system: GABA(A) receptors; assay: Evaluation of the potentiating effect on GABA(A) receptors (electrophysiology, GABA(A) receptor expressing cells); format: cell-based; conditions: for Inhibition rate to the increased electric current by adding flumazenil: 2 μM GABA and test compound with 10 μM flumazenil; for The potentiating effect on GABA(A) receptors EC20: concentration giving 20% increase of the current generated by 2 μM GABA
Experimental: Using GABA(A) receptor expressing cells prepared according to Guideline for Generation of Stable Cell Lines (website of Lonza Japan; Non-patent Literature 4), the present test is done for evaluating the potentiating effect of a drug on GABA(A) receptors based on the electric current raised by GABA. The GABA(A) receptor expressing cells were used in electrophysiological study, wherein the electric current was measured when 2 μM GABA solution and then a mixture of 2 μM GABA and the test compound were added to the cells. […] In addition, the electric current generated by a mixture of 2 μM GABA solution and the test compound with 10 μM flumazenil was measured, and the inhibition rate for the electric current by adding flumazenil was calculated compared to the electric current obtained in the absence of flumazenil.

[4] = test system: Slc: ddy male mice; conditions: mouse, in vivo, po, 1 h
Experimental: The present test is a test for evaluating whether the test compound may disturb coordinated movement or not. Rotarod is an apparatus equipped with a rotating columnar bar whose diameter is 4 cm, in which a mouse is made to walk on the rotating bar, and the coordinated movement is evaluated from the result of walking (can walk or cannot walk). Slc: ddy male mice (purchased from Japan SLC, Inc., body weight: 20-30 g) were trained 3 hours before the test starts so that they could walk on a rotarod apparatus rotating with a speed of 12 rotations per minute for 5 minutes without falling. Only the mice which can walk in the training are used in the test. The test compound was orally administered to a group consisting of 5 mice. […] To control mice, 0.5% methylcellulose solution was administered as test compound, and the same test was also done. The coordinated movement was evaluated with the average of the five mice's walking time (second).

[5] = test system: male Wister strain rats; assay: Antidepressant effect in rat forced swimming test; format: in vivo; conditions: for antidepressant effect / immobility time (in words): oral; for average rate of deceasing the immobility time per that of the control group: swim 5 minutes an hour later
Description: The present test can evaluate antidepressant effect of a drug. When a rat is thrown into a water bath from which the rat cannot escape to be made to swim, the rat takes on escape behavior in the beginning and then becomes immobile. Next day, when the rat is thrown into a water bath again, the immobility appears earlier than that of the first trial. The method can evaluate the antidepressant effect of a test compound by using the duration of the immobility time as an indicator of depressive behavior. A day before the test, male Wister strain rats (purchased from Charles River Laboratories Japan, body weight: 260-300 g) were made to swim in a water bath for 15 minutes. On the test day, the test compound was orally administered to the rats (10-12 rats in one group). An hour later, the rats were made to swim again for 5 minutes and each immobility time was measured. In the control group, 0.5% methylcellulose solution as the test compound was administered to the rats which were subjected to the same behavior test. The antidepressant effect was indicated by the average rate of deceasing the immobility time per that of the control group.

| Compound | animals exhibiting anticonvulsant action (in words) [1] | Difference of the threshold temperature of convulsion from that of the control group [2] [°C] | Dose for anticonvulsive effect [2] [mg/kg] | Inhibition rate to the increased electric current by adding flumazenil [3] [%] | The potentiating effect on GABA(A) receptors EC20 [3] [µM] | average of the five mice's walking time ([4]; 25 mg/kg) [s] | average of the five mice's walking time ([4]; 50 mg/kg) [s] | average of the five mice's walking time ([4]; 100 mg/kg) [s] | antidepressant effect / immobility time (in words) [5] | average rate of deceasing the immobility time per that of the control group ([5]; oral 3 mg/kg) | average rate of deceasing the immobility time per that of the control group ([5]; oral 10 mg/kg) | average rate of deceasing the immobility time per that of the control group ([5]; oral 30 mg/kg) |
| --- | --- | --- | --- | --- | --- | --- | --- | --- | --- | --- | --- | --- |
| CN1C(=O)CC[C@H]1c1nc(-c2ccc(F)cc2)no1 (single isomer, unassigned) [Example 31] | more than half of the animals | 0.3 | 12.5 | <0 | 15 | 180 | 53.2 | 0 | – | – | – | – |
| CN1C(=O)CCC1c1nc(-c2ccc(F)cc2)no1 (single isomer, unassigned) [Example 32] | – | 0.5 | 25 | <0 | 3.6 | – | 180 | 65.3 | significantly decreased the immobility time | 25.3* | 31.6* | 58.9* |
| CCC(CC)(C(N)=O)c1nc(-c2ccc(Cl)cc2)no1 [Example 11, 2-[3-(4-chlorophenyl)-1,2,4-oxadiazol-5-yl]-2-ethylbutanamide] | more than half of the animals | – | – | – | 5.1 | – | – | 180 | – | – | – | – |
| CC(C)(C(N)=O)c1nnc(-c2ccc(Br)cc2)o1 [Example 16, 2-[5-(4-bromophenyl)-1,3,4-oxadiazol-2-yl]-2-methylpropanamide] | more than half of the animals | – | – | – | >300 | – | – | 180 | – | – | – | – |
| CN1C(=O)CCC1c1nc(-c2ccc(F)cc2)no1 (stereo not shown) [Example 25, 5-[3-(4-Fluorophenyl)-1,2,4-oxadiazol-5-yl]-1-methylpyrrolidin-2-one] | more than half of the animals | 0.3 | 12.5 | 12 | 16 | 180 | 144.8 | – | – | – | – | – |
| CN1C(=O)CCC1(C)c1nc(-c2ccc(F)cc2)no1 (stereo not shown) [Example 28, 5-[3-(4-fluorophenyl)-1,2,4-oxadiazol-5-yl]-1,5-dimethylpyrrolidin-2-one] | more than half of the animals | – | – | 24 | 9.3 | – | 180 | – | – | – | – | – |
| CN1C(=O)CCC1c1nc(-c2ccc(Cl)cc2)no1 (stereo not shown) [Example 29, 5-[3-(4-chlorophenyl)-1,2,4-oxadiazol-5-yl]-1-methylpyrrolidin-2-one] | – | 0.7 | 25 | 7 | 1.1 | 180 | 146.4 | – | significantly decreased the immobility time | 12.3 | 29.4* | – |
| CN1C(=O)CCC1c1nc(-c2ccc(Br)cc2)no1 (stereo not shown) [Example 30, 5-[3-(4-bromophenyl)-1,2,4-oxadiazol-5-yl]-1-methylpyrrolidin-2-one] | more than half of the animals | – | – | – | – | – | 180 | – | – | – | – | – |
